Experimental data reported in patent EP0395672B1, “ANTIVIRAL APPLICATION OF ALPHA OLIGONUCLEOTIDES” (CENTRE NATIONAL DE LA RECHERCHE SCIENTIFIQUE, priority 1987, dated 1989).

Columns and labels:
L1210/0 = test: inhibition of tumour cell proliferation; format: cell-based, murine; details: Mus musculus, mean of at least two experiments, read-out: ID50 (dose d'inhibition du développement cellulaire de 50 %)
L1210/BdUrd = test: inhibition of tumour cell proliferation; format: cell-based, murine; details: Mus musculus; L1210/BdUrd (résistant à BdUrd); mean of at least two experiments; read-out: ID50 (dose d'inhibition du développement cellulaire de 50 %)
CEM = test: inhibition of tumour cell proliferation; format: cell-based, humaine; details: Homo sapiens, CCRF-CEM, mean of at least two experiments, read-out: ID50 (dose d'inhibition du développement cellulaire de 50 %)
MT4 = test: inhibition of tumour cell proliferation; format: cell-based, humaine; details: Homo sapiens, mean of at least two experiments, read-out: ID50 (dose d'inhibition du développement cellulaire de 50 %)
MOLT/4F = test: inhibition of tumour cell proliferation; format: cell-based, humaine; details: Homo sapiens, mean of at least two experiments, read-out: ID50 (dose d'inhibition du développement cellulaire de 50 %)
[1] = biological target: T1, réverse transcriptase de HIV1 (Human immunodeficiency virus type 1 group M subtype B, UniProt P03366); test: inhibition of exogenous reverse transcription, poly(A) template with oligo(dT)12-18 primer (Example 2); format: biochemical
T1 construct: La réverse transcriptase de HIV1 ci-après abrégé RT a été partiellement purifiée; endogenous in cells; host or cells: HUT-78/HTLV-IIIb producer cell line; virus particles pelleted at 100,000 g and solubilised with Triton X-100
Source text: Dans les exemples qui vont suivre les α oligodésoxynucléotides α-dT, α-dT₂, α-dT₄, α-dT₆, α-dT₈, α-dT₁₀, α-dT₁₂, α-dT₁₄, α-dT₁₆ ont été dissous dans de l'eau stérilisée pour les essais de réverse transcriptase. Les concentrations ont été déterminées par spectrophotométrie (coefficient d'absorption molaire : 8880, 17760, 35520, 61800, 70000, 83300, 88800, 109800 et 138400, respectivement). Les α oligodésoxynucléotides α-dC₂₀ et α-dC₃₀ ont été dissous dans de l'eau distillée et les concentrations ont été déterminées également par spectrophotométrie (coefficient d'absorption molaire 178000 et 267000, respectivement). Les solutions étaient conservées à -20° C jusqu'à leur utilisation.
Les réactions de transcription inverse ont été effectuées avec des virus HIV dont partiellement purifiées. Les fluides de culture provenant d'une lignée cellulaire produisant un HUT-78/HTLV-IIIb ont été purifiés par centrifugation à basse vitesse. Des particules virales ont été sédimentées par centrifugation à 100.000 g pendant 30 minutes. Le Pellet viral a été incubé sur glace pendant 30 minutes avec un tampon de solubilisation contenant du triton X-100 0,1 % du dithiothréitol 1mM et du glycérol 50 % et conservé dans des aliquots à -70°C jusqu'à utilisation. Les effets inhibiteurs des α oligodésoxynucléotides contenant des bases thymine sur la réaction de transcription inverse ont été effectués avec une matrice polyrA exogène et un α oligodT₁₂₋₁₈ . Le mélange de réaction (50 µl) contenait du Tris-HCl 50 mM (pH 7,8), du dithiothréitol 5mM, du glutathione 300 µM, du EGTA 500 µM et du KCl 150 mM, du MgCl₂ 5 mM, et 1,25 µg de sérum albumine de bovin, et 1 µM de (méthyl-³H) dTTP (radioactivité spécifique 30 Ci/mmol.) (5 µCi), le mélange comportait également 4,4 µg/ml de polyrA, 7,5 µM d'oligodT et du triton X-100 0,03 %, et 10 µl de solution de composé,(contenant des concentrations variables des composés) et 10 µl de préparation de réverse transcriptase. Les effets inhibiteurs sur la transcription de HIV à l'aide de α-dC₂₀ et α-dC₃₀ ont été déterminés en utilisant une matrice exogène polyI (50 µg/ml) tandis que le mélange oligodC₁₂₋₁₈ servait d'amorce (0,44 U/ml). Le mélange de réaction avec le système polyI.oligodC contenait des réactifs décrits pour le système polyrA. oligodT mais les concentrations de MgCl et KCI ont été ajustées à 2,5 mM et […], respectivement, tandis que le dTTP trifié a été substitué par le (méthyl-³H)dCTP (radioactivité spécifique 19,5 Ci/mmol) (5 µCi). Les mélanges de réactions ont été incubés à 37°C pendant 0 à 60 minutes à quel moment 100 µl d'ADN de thymus de veau (150 µg/ml), 2 ml de Na₄P₂O₇ (0,1 M dans HCL 1 N) et 2 ml de TCA (10 % v/v) ont été ajoutés. Les solutions ont été gardées sur glace pendant au moins 30 minutes, après lesquelles la matière acide insoluble a été lavée et analysée quant à sa radioactivité.
La réverse transcriptase de HIV1 ci-après abrégé RT a été partiellement purifiée et les oligomères α ont été étudiés en fonction de leur faculté à servir d'amorce sur une matrice poly(A) dans une réaction de transcription inverse exogène.
Ces pourcentages ont été calculés de la même manière que précédemment par mesure de radioactivité, laquelle indique la quantité d'incorporation de méthyl ³H dTTP (valeurs en Cpm).

IC50 (L1210/0) [µM] | IC50 (L1210/BdUrd) [µM] | IC50 (CEM) [µM] | IC50 (MOLT/4F) [µM] | Compound | IC50 (MT4) [µM] | pourcentages d'inhibitions de la réaction exogène de transcription inverse ([1]; 0.16 uM oligomer, 7,5 μM oligo(dT)12-18 primer) [%] | pourcentages d'inhibitions de la réaction exogène de transcription inverse ([1]; 0.8 uM oligomer, 7,5 μM oligo(dT)12-18 primer) [%] | pourcentages d'inhibitions de la réaction exogène de transcription inverse ([1]; 4 uM oligomer, 7,5 μM oligo(dT)12-18 primer) [%] | pourcentages d'inhibitions de la réaction exogène de transcription inverse ([1]; 20 uM oligomer, 7,5 μM oligo(dT)12-18 primer) [%] | pourcentages d'inhibitions de la réaction exogène de transcription inverse ([1]; 100 uM oligomer, 7,5 μM oligo(dT)12-18 primer) [%] | EC50 ([1]; 7,5 μM oligo(dT)12-18 primer, poly(A) template, read-out: ED50 (dose requise pour inhiber la réaction de transcription inverse de 50 %)) [µM] | inhibition de la réaction de transcription inverse ([1]; result in words, in presence of primer βdT₁₂₋₁₈)
> 500 | > 500 | > 500 | > 500 | Nc1nc2c(ncn2[C@@H]2C[C@H](O)[C@@H](CO)O2)c(=O)[nH]1 [α-2'-dGuo] | > 500 | – | – | – | – | – | – | –
– | – | – | – | Cc1cn([C@@H]2C[C@H](O)[C@@H](CO)O2)c(=O)[nH]c1=O [αdT] | – | 22 | 8 | 19 | 46 | 23 | > 100 | aucune inhibition significative
58.2 ± 10.9 | 55.5 ± 6.8 | 22.1 ± 0.6 | 79.5 ± 9.2 | Nc1nc2c(ncn2[C@H]2C[C@H](O)[C@@H](CO)O2)c(=O)[nH]1 [β dGuo, reference compound] | 55.3 ± 5.3 | – | – | – | – | – | – | –
29 ± 1.9 | > 500 | 24.7 ± 3.42 | > 500 | Cc1cn([C@H]2C[C@H](O)[C@@H](CO)O2)c(=O)[nH]c1=O [β dThd, reference compound] | 191 ± 7 | – | – | – | – | – | – | –
> 500 | > 500 | > 500 | > 500 | Nc1ccn([C@@H]2C[C@H](O)[C@@H](CO)O2)c(=O)n1 [α-2'-dC] | > 500 | – | – | – | – | – | – | –
> 500 | > 500 | 189 ± 19 | > 500 | Nc1ncnc2c1ncn2[C@H]1C[C@H](O)[C@@H](CO)O1 [β dAdo, reference compound] | > 500 | – | – | – | – | – | – | –
> 500 | > 500 | > 500 | > 500 | Nc1ncnc2c1ncn2[C@@H]1C[C@H](O)[C@@H](CO)O1 [α-2'-dAdo] | > 500 | – | – | – | – | – | – | –

Compound | IC50 (L1210/0) [µM] | IC50 (L1210/BdUrd) [µM] | IC50 (CEM) [µM] | IC50 (MOLT/4F) [µM] | IC50 (MT4) [µM] | pourcentages d'inhibitions de la réaction exogène de transcription inverse ([1]; 0.16 uM oligomer, 7,5 μM oligo(dT)12-18 primer) [%] | pourcentages d'inhibitions de la réaction exogène de transcription inverse ([1]; 0.8 uM oligomer, 7,5 μM oligo(dT)12-18 primer) [%] | pourcentages d'inhibitions de la réaction exogène de transcription inverse ([1]; 4 uM oligomer, 7,5 μM oligo(dT)12-18 primer) [%] | pourcentages d'inhibitions de la réaction exogène de transcription inverse ([1]; 20 uM oligomer, 7,5 μM oligo(dT)12-18 primer) [%] | pourcentages d'inhibitions de la réaction exogène de transcription inverse ([1]; 100 uM oligomer, 7,5 μM oligo(dT)12-18 primer) [%] | EC50 ([1]; 7,5 μM oligo(dT)12-18 primer, poly(A) template, read-out: ED50 (dose requise pour inhiber la réaction de transcription inverse de 50 %)) [µM] | inhibition de la réaction de transcription inverse ([1]; result in words, in presence of primer βdT₁₂₋₁₈)
Cc1cn([C@@H]2C[C@H](O)[C@@H](CO)O2)c(=O)[nH]c1=O [α-2'-dThd] | > 500 | > 500 | > 500 | > 500 | > 500 | – | – | – | – | – | – | –
